Reference: patent publication US20110039904A1, “Alcohol alkoxylates, agents comprising the same and use of the alcohol alkoxylates as adjuvants in the agrochemical field” (BASF SE, priority 2008, published 2011)

Tested on: leaf rust of wheat "Puccinia recondita"
Assay: Biotest: curative control of leaf rust of wheat (fungicidal efficacy of epoxiconazole with adjuvant)
Assay type: in vivo, Puccinia recondita on wheat seedlings "Kanzler"
Conditions: 50 ppm epoxiconazole without adjuvant; sprayed 2 days after inoculation; rated after 10 days; wheat seedlings, greenhouse
Protocol: 125 g/l epoxiconazole were ground together with in each case 20 g/l dispersant (Atlas G 5000^1, Synperonic A^1) and 50 g/l propylene glycol in aqueous medium in a stirred-ball mill (dyno-mill) until a particle size of 80% <2 μm was reached. To the mixture were added 3 g/l per liter antifoam, for example Rhodorsil 426^2, 3 g/l thickener, for example Rhodopol 23^2, and a biocide, for example Acticide MBS^3. The respective adjuvant, in aqueous solution or in a solvent, for example Solvesso, was stirred into this mixture, so that the final concentration of the formulation is composed of 62.5 g/l epoxiconazole and 125 g/l adjuvant.
Biotest (curative control of leaf rust of wheat):
Leaves of wheat seedlings of the species “Kanzler” which had been grown in pots were dusted, in the two-leaf stage, with spores of leaf rust of wheat “Puccinia recondita” and incubated for 2 days in the greenhouse at high atmospheric humidity. In fully automated spray cabins, the plants were then sprayed with the formulations which comprised the active ingredients and adjuvants specified hereinbelow. The spray mixtures comprised 50 ppm epoxiconazole and 100 ppm adjuvant. The ratio active ingredient to adjuvant was, accordingly, 1:2. […] After 10 days, the extent of the leaf rust disease was determined visually as disease percent of the total leaf area. 3 pots were evaluated for each combination.

Fc1ccc([C@]2(Cn3cncn3)O[C@H]2c2ccccc2Cl)cc1 (racemic) [Epoxiconazole, epoxiconazole]
% infection (leaf rust disease percent of the total leaf area, determined visually): 23%
